According to publication PMC6153800, “Structure-Based Drug Design and Characterization of Sulfonyl-Piperazine Benzothiazinone Inhibitors of DprE1 from Mycobacterium tuberculosis” (Antimicrobial Agents and Chemotherapy, 2018):
≈ marks a conversion by molar mass, not a printed value.

tested on: M. tuberculosis NTB1 (DprE1 C387S mutant); format: cell-based, Mycobacterium tuberculosis

Row | SMILES | MIC99 NTB1 [µg/mL]
1 | CS(=O)(=O)N1CCN(c2nc(=O)c3cc(C(F)(F)F)cc([N+](=O)[O-])c3s2)CC1 [compound 11626095] | 75 (≈ 171 µM)
2 | O=c1nc(N2CCN(CC3CCCCC3)CC2)sc2c([N+](=O)[O-])cc(C(F)(F)F)cc12 [PBTZ169, macozinone, reference compound] | >100
3 | CCCCS(=O)(=O)N1CCN(c2nc(=O)c3cc(C(F)(F)F)cc([N+](=O)[O-])c3s2)CC1 [compound 11626093] | >100
4 | O=c1nc(N2CCN(S(=O)(=O)c3cccc4cnccc34)CC2)sc2c([N+](=O)[O-])cc(C(F)(F)F)cc12 [compound 11626094] | >100
5 | O=c1nc(N2CCN(S(=O)(=O)C3CC3)CC2)sc2c([N+](=O)[O-])cc(C(F)(F)F)cc12 [compound 11626091] | 14.7 (≈ 31.7 µM)
6 | CO[C@H]1/C=C/O[C@@]2(C)Oc3c(C)c(O)c4c(O)c(c(/C=N/N5CCN(C)CC5)c(O)c4c3C2=O)NC(=O)/C(C)=C\C=C\[C@H](C)[C@H](O)[C@@H](C)[C@@H](O)[C@@H](C)[C@H](OC(C)=O)[C@@H]1C [Rifampin, reference compound] | 0.0008 (≈ 0.000972 µM)
7 | CCS(=O)(=O)N1CCN(c2nc(=O)c3cc(C(F)(F)F)cc([N+](=O)[O-])c3s2)CC1 [compound 11626092] | 25.1 (≈ 55.5 µM)
8 | O=c1nc(N2CCN(S(=O)(=O)c3cccs3)CC2)sc2c([N+](=O)[O-])cc(C(F)(F)F)cc12 [compound 11326059] | >100
9 | O=c1nc(N2CCN(S(=O)(=O)C3CCCCC3)CC2)sc2c([N+](=O)[O-])cc(C(F)(F)F)cc12 [compound 11326127] | >100
